In US12612424B2, “HPK1 inhibitors and uses thereof” (Regor Pharmaceuticals, Inc., priority 2019, dated 2026):
pEC50: −log10 of the molar value.

Tested on: Human Pan T Cell (IL-2 release)
Assay: IL2 released by human pan T cell upon anti-CD3/anti-CD28 stimulation (ELISA)
Type: cell-based
Details: human pan T cells; for EC (2-fold response) / maximal fold induction / pEC50: Homo sapiens, T-cell; for EC (2-fold response) / maximal fold induction: 48 h; for EC (2-fold response) / EC2x (nM): concentration of compound that gives 200% IL-2 response (2 folds) over DMSO control; for maximal fold induction: response of IL-2 over DMSO control, anti-CD3/anti-CD28, 48 hours, ELISA, read-out: IL-2 Max Fold Response; for pEC50: IL-2 response, calculated with GraphPad Prism
Description: For example, Example 5 describes such a functional assay for determining the effect of an HPK1 inhibitor on IL-2 & IFN-γ release upon stimulation of Pan T cells. The secreted IL-2 & IFN-γ can be measured/quantified by standard ELISA assay. Briefly, pan T cells can be isolated from peripheral blood (PB) mononuclear cells (MNCs), or PBMC, using commercially available kits, such as MACS (Miltenyl Biotec) Pan T isolation kit (Cat. No. 130-096-535). Primary human pan-T cells include CD4 and CD8 T cells as well as some gamma/delta T cell subsets. The pan-T cells can be isolated using the negative immunomagnetic separation technique without the use of columns.
Isolated pan-T cells can be dispensed into 96-well plates at 100,000 cells/well, and stimulated with immobilized anti-CD3 antibody and soluable anti-CD28 antibody, or PMA/Ionomycin as the positive control (or culture media as the negative control). Different concentrations of test compounds can be added to the cells to assess the compound effect on cytokine secretion following TCR-stimulation/CD28 co-stimulation. Stimulated cells are incubated for 2 more days, before the supernatant (containing secreted cytokines by pan-T cells) is collected from each well for ELISA assay and quantitation of IL-2 and IFN-γ.
Biology Example 8 Compound Efficacy Study on IL2 & IFN-γ Released by Human Pan T Cell
This example is an assay method that can be used to determine compound effects on IL2 & IFN-γ release using pan T cells and ELISA assay format.
3. Procedures Procedures for Pan T isolation and Reagent preparation (Day 0): 1. Cell Growth Medium: • RPMI1640: ATCC, Cat #30-2001 • 10% FBS: Gibco, Cat #10099141 • 1% Pen-Strep: Gibco, Cat #15140122 • 1% Non-essential amino: Gibco, Cat #11140050 • Beta-Mercaptoethanol: Gibco, Cat #21985023 2. Pan T Isolation Buffer Preparation:
Prepare a solution containing phosphate-buffered saline (PBS), pH 7.2, 0.5% bovine serum albumin (BSA), and 2 mM EDTA by diluting MACS® BSA Stock Solution (#130-091-376) 20 times with autoMACS® Rinsing Solution. Keep buffer at 4° C. Degas buffer before use, as air bubbles could block the column.
3. Thawing of Frozen PBMC • 1) Pre-heat medium at 37° C. water bath. • 2) Rapidly thaw cells in 37° C. water bath. • 3) Add the pre-warmed medium into 15 mL tube. Transfer cells to the tube. • 4) 300×g centrifuge for 8 min. (centrifuge increase 0, decrease 0). • 5) Wash the PBMC using Rinsing buffer. • 6) Centrifuge PBMC at 300×g for 8 min, wash it twice (centrifuge increase 9, decrease 1). • 7) Resuspend the cells with Pan T cells isolation buffer and count cells number. 4. Pan T Cells Isolation: Cell Staining with Microbead Cocktail • 1) Prepare cells and determine cell number. Filter cells by 70 μm cell strainer. • 2) Resuspend cell pellet in 40 μL of buffer per 10^7 total cells. • 3) Add 10 μL of Pan T Cell Biotin-Antibody Cocktail per 10^7 total cells. • 4) Mix well and incubate for 10 minutes in the refrigerator (ice). • 5) Add 30 μL of buffer per 10^7 total cells. • 6) Add 20 μL of Pan T Cell MicroBead Cocktail per 10^7 total cells. • 7) Mix well and incubate for 15 minutes in the refrigerator (ice). • 8) Proceed to subsequent magnetic cell separation. • Note: a. Work fast, keep cells cold, and use pre-cooled solutions (2-8° C.). b. Volumes for magnetic labeling given are for up to 10′ total cells. When working with fewer cells, use the same volumes as indicated. c. When working with higher cell numbers, scale up all reagent volumes and total volumes accordingly. d. For optimal performance it is important to obtain a single-cell suspension before magnetic labeling. Subsequent Manual Cell Separation: • 1) Place LS Column in the magnetic field of a suitable MACS Separator. For details refer to the respective MACS Column data sheet. • 2) Prepare column by rinsing with 3 mL of buffer. • 3) Apply cell suspension onto the column. Collect flow-through, which represents the enriched T cells. • 4) Wash column with 5 mL of buffer. […]

SMILES | pEC50 | EC (2-fold response) | maximal fold induction | EC2x (nM)
COc1cc2c(cc1Nc1ncc(C#N)c(N3CC(C(=O)O)c4ccccc43)n1)CN(C)CC2 (stereo not shown) [Example 110, 1-(5-Cyano-2-((6-methoxy-2-methyl-1,2,3,4-tetrahydroisoquinolin-7-yl)amino)pyrimidin-4-yl)indoline-3-carboxylic acid] |  |  | < 2 | 
COc1cc2c(cc1Nc1ncc(Cl)c(N3CCc4c(C(F)F)cccc43)n1)CN(C)CC2 [Example 92, N-(5-chloro-4-(4-(difluoromethyl)indolin-1-yl)pyrimidin-2-yl)-6-methoxy-2-methyl-1,2,3,4-tetrahydroisoquinolin-7-amine] |  |  | < 2 | 
COc1cc2c(cc1Nc1ncc(Cl)c(N3CC(C)(C#N)c4ccccc43)n1)CN(C)CC2 (stereo not shown) [Example 121, 1-(5-Chloro-2-((6-methoxy-2-methyl-1,2,3,4-tetrahydroisoquinolin-7-yl)amino)pyrimidin-4-yl)-3-methylindoline-3-carbonitrile] |  |  | < 2 | 
CN1CCc2cc(Cl)c(Nc3ncc(Cl)c(N4CCc5ccccc54)n3)cc2C1 [Example 15, 6-Chloro-N-(5-chloro-4-(indolin-1-yl)pyrimidin-2-yl)-2-methyl-1,2,3,4-tetrahydroisoquinolin-7-amine] | < 6.00 |  | > 2 | + (“+”, for greater than 1 μM)
COc1cc2c(cc1Nc1ncc(Cl)c(-c3nn(CC(=O)O)c4ccccc34)n1)CN(C)CC2 [Example 162, 2-(3-(5-Chloro-2-((6-methoxy-2-methyl-1,2,3,4-tetrahydroisoquinolin-7-yl)amino)pyrimidin-4-yl)-1H-indazol-1-yl)acetic acid] |  |  | < 2 | 
COC(=O)C1CN(c2nc(Nc3cc4c(cc3OC)CCN(C)C4)ncc2C(F)F)c2ccccc21 (stereo not shown) [Example 112] |  |  | < 2 | 
COc1cc2c(cc1Nc1ncc(Cl)c(N3CCc4ccccc43)n1)CN(C)CC2 [Example 4, N-(5-Chloro-4-(indolin-1-yl)pyrimidin-2-yl)-6-methoxy-2-methyl-1,2,3,4-tetrahydroisoquinolin-7-amine] | 6.30 to 7.00 | 0.1 to 0.5 µM | > 2 | 
COc1ccc2c(c1)N(c1nc(Nc3cc4c(cc3OC)CCN(C)C4)ncc1Cl)CC2C(=O)O (stereo not shown) [Example 107, 1-(5-Chloro-2-((6-methoxy-2-methyl-1,2,3,4-tetrahydroisoquinolin-7-yl)amino)pyrimidin-4-yl)-6-methoxyindoline-3-carboxylic acid] |  |  | < 2 | 
COc1cc2c(cc1Nc1ncc(Cl)c(N3CC(C)(C(N)=O)c4ccccc43)n1)CN(C)CC2 (stereo not shown) [Example 120, 1-(5-Chloro-2-((6-methoxy-2-methyl-1,2,3,4-tetrahydroisoquinolin-7-yl)amino)pyrimidin-4-yl)-3-methylindoline-3-carboxamide] |  |  | < 2 | 
COC(=O)CC1(C)CN(c2nc(Nc3cc4c(cc3OC)CCN(C)C4)ncc2Cl)c2ccccc21 (stereo not shown) [Example 145] |  |  | < 2 | 
COc1cc2c(cc1Nc1ncc(Cl)c(N3CCc4cc(Cl)ccc43)n1)CN(C)CC2 [Example 13, N-(5-chloro-4-(5-chloroindolin-1-yl)pyrimidin-2-yl)-6-methoxy-2-methyl-1,2,3,4-tetrahydroisoquinolin-7-amine] | < 6.00 |  | < 2 | 

Second part, led by results:

pEC50 | SMILES | EC (2-fold response) | maximal fold induction | EC2x (nM)
≥ 7.00 | COc1cc2c(cc1Nc1ncc(Cl)c(N3CC(C)(CC(=O)O)c4ccc(F)cc43)n1)CN(C)CC2 (single isomer, unassigned) [Example 152] | ≤ 0.1 µM | > 2 | 
6.00 to 6.30 | COc1cc2c(cc1Nc1ncc(Cl)c(N3CC(C(=O)O)C4(CCCCC4)C3)n1)CN(C)CC2 (stereo not shown) [Example 167, 2-(5-Chloro-2-((6-methoxy-2-methyl-1,2,3,4-tetrahydroisoquinolin-7-yl)amino)pyrimidin-4-yl)-2-azaspiro[4.5]decane-4-carboxylic acid] | 0.1 to 0.5 µM | > 2 | 
≥ 7.00 | COc1cc2c(cc1Nc1ncc(Cl)c(-n3cc(CC(=O)O)c4ccc(F)cc43)n1)CN(C)CC2 [Example 139] | ≤ 0.1 µM | > 2 | 
≥ 7.00 | COc1cc2c(cc1Nc1ncc(Cl)c(N3C[C@@](C)(C(=O)O)c4ccccc43)n1)CN(C)CC2 (single isomer, unassigned) [Example 119] | ≤ 0.1 µM | > 2 | 
6.00 to 6.30 | COc1cc2c(cc1Nc1ncc(Cl)c(-n3cc(CC(=O)NCC#N)c4ccccc43)n1)CN(C)CC2 [Example 137] |  | < 2 | 
< 6.00 | COc1cc2c(cc1Nc1ncc(Cl)c(-n3cc(Cc4nn[nH]n4)c4ccccc43)n1)CN(C)CC2 [Example 135, N-(4-(3-((2H-tetrazol-5-yl)methyl)-1H-indol-1-yl)-5-chloropyrimidin-2-yl)-6-methoxy-2-methyl-1,2,3,4-tetrahydroisoquinolin-7-amine] |  | < 2 | 
6.30 to 7.00 | COc1cc2c(cc1Nc1ncc(Cl)c(-n3cc(C(C)C(=O)O)c4ccccc43)n1)CN(C)CC2 (stereo not shown) [Example 142] |  | < 2 | 
6.30 to 7.00 | COc1cc2c(cc1Nc1ncc(Cl)c(N3CC(C(=O)O)c4ccccc43)n1)CN(C)CC2 (single isomer, unassigned) [Example 96] | 0.1 to 0.5 µM | > 2 | 
< 6.00 | COc1cc2c(cc1Nc1ncc(Cl)c(-n3nc(CC(=O)O)c4ccccc43)n1)CN(C)CC2 [Example 141] |  | > 2 | ++ (“++”, for higher values than “+++” but less than or equal to 1 μM)
6.30 to 7.00 | COc1cc2c(cc1Nc1ncc(Cl)c(N3CCc4ncccc43)n1)CN(C)CC2 [Example 16, N-(5-chloro-4-(2,3-dihydro-1H-pyrrolo[3,2-b]pyridin-1-yl)pyrimidin-2-yl)-6-methoxy-2-methyl-1,2,3,4-tetrahydroisoquinolin-7-amine] |  | < 2 | 
< 6.00 | COc1cc2c(cc1Nc1ncc(Cl)c(-n3nc(C(=O)O)c4ccccc43)n1)CN(C)CC2 [Example 113] |  | < 2 | 
< 6.00 | COc1cc2c(cc1Nc1ncc(Cl)c(N3CCc4cc(C(F)F)ccc43)n1)CN(C)CC2 [Example 90, N-(5-chloro-4-(5-(difluoromethyl)indolin-1-yl)pyrimidin-2-yl)-6-methoxy-2-methyl-1,2,3,4-tetrahydroisoquinolin-7-amine] |  | < 2 | 
≥ 7.00 | COc1cc2c(cc1Nc1ncc(Cl)c(N3CC(C)(C(=O)O)c4cc(F)ccc43)n1)CN(C)CC2 (stereo not shown) [Example 125] | ≤ 0.1 µM | > 2 | 
6.30 to 7.00 | COc1cc2c(cc1Nc1ncc(Cl)c(-n3cc(CC(=O)O)c4cc(F)ccc43)n1)CN(C)CC2 [Example 138] | 0.1 to 0.5 µM | > 2 | 
6.30 to 7.00 | COc1cc2c(cc1Nc1ncc(Cl)c(N3CC(CC(=O)O)c4ccccc43)n1)CN(C)CC2 (stereo not shown) [Example 128] | 0.1 to 0.5 µM | > 2 | 
